We go through 31 compounds from patent EP1228063B1, “SUBSTITUTED PYRIDINES AND PYRIDAZINES WITH ANGIOGENESIS INHIBITING ACTIVITY” (BAYER CORPORATION, priority 1999, dated 2001).

The structures appear in SMILES notation. A value given as a limit tells only on which side of the number the result lay.

T2 sequence (P35968 20-1356): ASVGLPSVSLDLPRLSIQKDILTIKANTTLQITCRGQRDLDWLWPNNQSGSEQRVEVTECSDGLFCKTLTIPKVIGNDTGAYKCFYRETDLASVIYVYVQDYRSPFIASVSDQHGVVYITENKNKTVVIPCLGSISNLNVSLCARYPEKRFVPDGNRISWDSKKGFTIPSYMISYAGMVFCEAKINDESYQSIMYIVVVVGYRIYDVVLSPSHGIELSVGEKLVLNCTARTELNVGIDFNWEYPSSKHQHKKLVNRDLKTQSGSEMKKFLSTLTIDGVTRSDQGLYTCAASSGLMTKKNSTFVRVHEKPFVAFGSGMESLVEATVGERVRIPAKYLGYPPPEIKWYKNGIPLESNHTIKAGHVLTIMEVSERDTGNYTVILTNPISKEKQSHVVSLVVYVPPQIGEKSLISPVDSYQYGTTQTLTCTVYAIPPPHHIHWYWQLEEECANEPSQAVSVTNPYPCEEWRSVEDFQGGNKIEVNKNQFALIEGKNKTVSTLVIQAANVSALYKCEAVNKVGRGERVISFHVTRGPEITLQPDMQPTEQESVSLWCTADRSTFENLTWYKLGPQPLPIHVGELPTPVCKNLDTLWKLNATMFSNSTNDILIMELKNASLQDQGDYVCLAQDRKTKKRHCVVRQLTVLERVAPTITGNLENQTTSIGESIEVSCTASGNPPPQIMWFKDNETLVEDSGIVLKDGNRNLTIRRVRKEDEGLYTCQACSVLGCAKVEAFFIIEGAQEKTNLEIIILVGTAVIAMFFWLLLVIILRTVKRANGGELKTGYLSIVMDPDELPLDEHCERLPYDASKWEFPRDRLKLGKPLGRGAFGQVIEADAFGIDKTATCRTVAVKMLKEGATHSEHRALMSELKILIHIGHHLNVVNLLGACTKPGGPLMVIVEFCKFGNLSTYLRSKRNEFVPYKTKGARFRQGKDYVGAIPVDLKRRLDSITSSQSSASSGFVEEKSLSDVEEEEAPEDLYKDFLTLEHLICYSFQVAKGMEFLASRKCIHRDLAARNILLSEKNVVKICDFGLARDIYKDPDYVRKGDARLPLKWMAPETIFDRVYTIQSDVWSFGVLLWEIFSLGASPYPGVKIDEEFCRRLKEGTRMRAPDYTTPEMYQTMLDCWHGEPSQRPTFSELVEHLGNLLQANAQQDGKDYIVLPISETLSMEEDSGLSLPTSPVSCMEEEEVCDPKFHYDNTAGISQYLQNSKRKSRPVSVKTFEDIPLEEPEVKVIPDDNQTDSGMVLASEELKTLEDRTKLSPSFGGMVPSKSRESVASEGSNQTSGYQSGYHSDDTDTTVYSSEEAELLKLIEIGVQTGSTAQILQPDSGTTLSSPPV

The target in one experiment is T1, KDR kinase domain (Homo sapiens, UniProt P35968).
T1 construct: The cytosolic kinase domain of KDR kinase was expressed as a 6His fusion protein in Sf9 insect cells; 6His; made in house; host or cells: Sf9 insect cells
T1 sequence (P35968 834-1162 limits assumed): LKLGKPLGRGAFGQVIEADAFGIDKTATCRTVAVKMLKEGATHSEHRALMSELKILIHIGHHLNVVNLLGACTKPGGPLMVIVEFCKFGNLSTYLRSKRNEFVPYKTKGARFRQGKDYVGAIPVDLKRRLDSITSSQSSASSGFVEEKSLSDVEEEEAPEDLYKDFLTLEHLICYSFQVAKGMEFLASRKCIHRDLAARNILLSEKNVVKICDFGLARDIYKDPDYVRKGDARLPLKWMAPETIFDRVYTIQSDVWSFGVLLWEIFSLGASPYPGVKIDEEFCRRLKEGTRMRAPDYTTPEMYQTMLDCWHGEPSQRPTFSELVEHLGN
Kind of experiment: KDR Assay (ELISA of poly(Glu4;Tyr1) phosphorylation). It is filed as biochemical. The settings on record: 3.3 µM ATP, 60 minutes at room temperature. The procedure: The cytosolic kinase domain of KDR kinase was expressed as a 6His fusion protein in Sf9 insect cells. The KDR kinase domain fusion protein was purified over a Ni++ chelating column. Ninety-six well ELISA plates were coated with 5 µg poly(Glu4;Tyr1) (Sigma Chemical Co., St Louis, MO) in 100 µl HEPES buffer (20 mM HEPES, pH 7.5, 150 mM NaCl, 0.02% Thimerosal) at 4° overnight. Before use, the plate was washed with HEPES, NaCl buffer and the plates were blocked with 1% BSA, 0.1% Tween 20 in HEPES, NaCl buffer.
Test compounds were serially diluted in 100% DMSO from 4 mM to 0.12 µM in half-log dilutions. These dilutions were further diluted twenty fold in H2O to obtain compound solutions in 5% DMSO. Following loading of the assay plate with 85 µl of assay buffer (20 mM HEPES, pH 7.5, 100 mM KCI, 10 mM MgCl2, 3 mM MnCl2, 0.05% glycerol, 0.005% Triton X-100, 1 mM -mercaptoethanol, with or without 3.3 µM ATP), 5 µl of the diluted compounds were added to a final assay volume of 100 µl. Final concentrations were between 10 µM, and 0.3 nM in 0.25% DMSO. The assay was initiated by the addition of 10µl (30 ng) of KDR kinase domain.
The assay was incubated with test compound or vehicle alone with gentle agitation at room temperature for 60 minutes. The wells were washed and phosphotyrosines (PY) were probed with an anti-phosphotyrosine (PY), mAb clone 4G10 (Upstate Biotechnology, Lake Placid, NY). PY/anti-PY complexes were detected with an anti-mouse IgG/HRP conjugate (Amersham International plc, Buckinghamshire, England). Phosphotyrosine was quantitated by incubating with 100 µl 3, 3', 5, 5' tetramethylbenzidine solution (Kirkegaard and Perry, TMB Microwell 1 Component peroxidase substrate). Color development was arrested by the addition of 100 µl 1% HCl-based stop solution (Kirkegaard and Perry, TMB I Component Stop Solution).
Optical densities were determined spectrophotometrically at 450 nm in a 96-well plate reader, SpectraMax 250 (Molecular Devices). Background (no ATP in assay) OD values were subtracted from all ODs and the percent inhibition was calculated according to the equation: % Inhibition = ((OD(vehicle control)-OD(with compound)) × 100)/(OD(vehicle control)-OD(no ATP added)) [formula]
With `CNC(=O)c1cc(COc2nnc(Nc3cccc(Cl)c3)c3ccoc23)ccn1` [Example 35], the IC50 was 100 to 1000 nM.
Still for that read-out and setting: next, `c1ccc2c(Nc3ccc4ncsc4c3)ncc(Cc3ccncc3)c2c1` [Example 5, 1-(benzothiazol-6-ylamino)-4-(4-pyridylmethyl)-isoquinoline]: 100 to 1000 nM; `OCc1cc(COc2nnc(Nc3ccc(Cl)cc3)c3ccoc23)ccn1` [Example 64]: 100 to 1000 nM.
The same measure, in the same setting: next, `c1nc2ccc(Nc3nnc(Nc4ccc5c(c4)CCC5)c4ccsc34)cc2s1` [Example 18, 4-(indan-5-ylamino)-7-(benzothiazol-6-ylamino)thieno-[2,3-d]pyridazine]: no more than 100 nM; `c1ccc2c(Nc3ccc4ncsc4c3)ncc(Sc3ccncc3)c2c1` [Example 3, 1-(benzothiazol-6-ylamino)-4-(4-pyridylthio)isoquinolin]: 100 to 1000 nM.
On the same count and under the same terms, next, `CNC(=O)c1cc(COc2nnc(Nc3ccc(F)cc3)c3ccsc23)ccn1` [Example 67]: 100 to 1000 nM; `CNC(=O)c1cc(COc2nnc(Nc3ccc(F)c(Cl)c3)c3ccoc23)ccn1` [Example 36]: 100 to 1000 nM; `c1cc2c(Nc3ccc4[nH]ncc4c3)nnc(Nc3ccc4[nH]ncc4c3)c2s1` [Example 27]: 100 to 1000 nM.
In turn, `CNC(=O)c1cc(COc2nnc(Nc3ccc(N4CCOCC4)cc3)c3ccoc23)ccn1` [Example 46] displayed an IC50 of 100 to 1000 nM.
Still for that read-out and setting: next, `Oc1ccc(Nc2nnc(OCc3ccncc3)c3occc23)cc1` [Example 58]: 100 to 1000 nM; `c1cc2c(Nc3ccc4ncsc4c3)nnc(Nc3ccc4ncsc4c3)c2o1` [Example 28]: 100 to 1000 nM; `CNC(=O)c1cc(COc2nnc(Nc3ccccc3OC)c3ccoc23)ccn1` [Example 50]: 100 to 1000 nM.
The same measure, in the same setting: next, `CNC(=O)c1cc(COc2nnc(Nc3ccc4[nH]ncc4c3)c3ccoc23)ccn1` [Example 55]: 100 to 1000 nM; `Cc1ccc(Nc2nnc(Nc3ccc4ncsc4c3)c3ccccc23)cc1F` [Example 104]: no more than 100 nM.
Still for that read-out and setting: next, `CCN(c1ccc(Nc2nnc(Nc3ccc4ncsc4c3)c3ccccc23)cc1)C(C)C` [Example 100]: 100 to 1000 nM.
Regarding `CNC(=O)c1cc(COc2nnc(Nc3ccc(N(C)C(C)=O)cc3)c3ccoc23)ccn1` [Example 45], the 50% inhibitory concentration (IC50) was in the range of 100 to 1000 nM.
On the same count and under the same terms, next, `Clc1ccc(Nc2nnc(Nc3ccc4ncsc4c3)c3occc23)cc1` [Example 48]: 100 to 1000 nM; `CN(C)CCNC(=O)c1cc(COc2nnc(Nc3ccc(Cl)cc3)c3ccoc23)ccn1` [Example 82A]: 100 to 1000 nM.
Same read-out and setting: next, `Clc1ccc(Nc2nnc(Nc3ccc4nc[nH]c4c3)c3ccccc23)cc1` [Example 95]: 100 to 1000 nM; `Cc1ccc(Nc2nnc(Nc3ccc4ncsc4c3)c3sccc23)cc1F` [Example 79]: 100 to 1000 nM.
On to `COc1ccc(Nc2nnc(OCc3ccncc3)c3occc23)cc1` [Example 21, 4-(4-methoxyphenylamino)-7-(4-pyridylmethoxy)furo-[2,3-d]pyridazine], for which the IC50 was 100 to 1000 nM.
Compound `c1ccc2c(Nc3ccc4ncsc4c3)nnc(Nc3ccc4ncsc4c3)c2c1` [Example 93] had a half-maximal inhibitory concentration (IC50) of no more than 100 nM.
`O=C(c1cc(COc2nnc(Nc3ccc(Cl)cc3)c3ccoc23)ccn1)N1CCOCC1` [Example 61] had an IC50 of 100 to 1000 nM.
Still for that read-out and setting: next, `c1ccc2c(Nc3ccc4ncsc4c3)nnc(Nc3ccc(N4CCCCC4)cc3)c2c1` [Example 99]: 100 to 1000 nM.

A further experiment concerns the target T2, NIH3T3 cells expressing the full length KDR receptor (Homo sapiens, UniProt P35968).
T2 construct: NIH3T3 cells expressing the full length KDR receptor; expressed in transfected cells; host or cells: NIH3T3 cells (G418 selection)
In words: Cell mechanistic assay - Inhibition of 3T3 KDR phosphorylation. Type of experiment: cell-based. The settings on record: VEGF (30 ng / ml) stimulated KDR phosphorylation in NIH3T3 cells, 30 minutes preincubation. The procedure:
NIH3T3 cells expressing the full length KDR receptor were grown in DMEM (Life Technologies, Inc., Grand Island, NY) supplemented with 10% newborn calf serum, low glucose, 25 mM /L sodium pyruvate, pyridoxine hydrochloride and 0.2 mg/ ml of G418 (Life Technologies Inc., Grand Island, NY). The cells were maintained in collagen I-coated T75 flasks (Becton Dickinson Labware, Bedford, MA) in a humidified 5% CO2 atmosphere at 37°C.
Fifteen thousand cells were plated into each well of a collagen 1-coated 96-well plate in the DMEM growth medium. Six hours later, the cells were washed and the medium was replaced with DMEM without serum. After overnight culture to quiesce the cells, the medium was replaced by Dulbecco's phosphate-buffered saline (Life Technologies Inc., Grand Island, NY) with 0.1 % bovine albumin (Sigma Chemical Co., St Louis, MO). After adding various concentrations (0-300 nM) of test compounds to the cells in 1% final concentration of DMSO, the cells were incubated at room temperature for 30 minutes. The cells were then treated with VEGF (30 ng / ml) for 10 minutes at room temperature. Following VEGF stimulation, the buffer was removed and the cells were lysed by addition of 150 µl of extraction buffer (50 mM Tris, pH 7.8, supplemented with 10% glycerol, 50 mM BGP, 2 mM EDTA, 10 mM NaF, 0.5 mM NaVO4, and 0.3% TX-100) at 4°C for 30 minutes.
To assess receptor phosphorylation, 100 microliters of each cell lysate was added to the wells of an ELISA plate precoated with 300 ng of antibody C20 (Santa Cruz Biotechnology, Inc., Santa Cruz , CA). Following a 60-minute incubation, the plate was washed and bound KDR was probed for phosphotyrosine using an anti-phosphotyrosine mAb clone 4G10 (Upstate Biotechnology, Lake Placid, NY). The plate was washed and wells were incubated with anti-mouse IgG/HRP conjugate (Amersham International plc, Buckinghamshire, England) for 60 minutes. Wells were washed and phosphotyrosine was quantitated by addition of 100 µl per well of 3,3',5,5' tetramethylbenzidine (Kirkegaard and Perry, TMB Microwell 1 Component peroxidase substrate) solution. Color development was arrested by the addition of 100 µl 1% HCl based stop solution (Kirkegaard and Perry, TMB 1 Component Stop Solution).
Optical densities (OD) were determined spectrophotometrically at 450 nm in a 96-well plate reader (SpectraMax 250, Molecular Devices). Background (no VEGF added) OD values were subtracted from all ODs and percent inhibition was calculated according to the equation: % Inhibition = ((OD(VEGF control)-OD(with test compound)) × 100)/(OD(VEGF control)-OD(no VEGF added)) [formula]
IC50s were determined on some of the exemplary materials with a least squares analysis program using compound concentration versus percent inhibition. Compounds that have IC50 ≤ 20 nM in this assay include those of Examples 2, 6, 10, 11, 14, 23, 96, 101, 102, 103, 104, 105. Compounds that have IC50 values between 20 nM and 50 nM include those of examples 1, 4, 8, 9, 12, 13, 17, 24, 93, 98. Compounds that have IC50 values between 50 nM and 400 nM include those of examples 97, 99, and 100.
The compound `FC1(F)Oc2ccc(Nc3nnc(Nc4ccc5ncsc5c4)c4ccccc34)cc2O1` [Example 98] had an IC50 of 20 to 50 nM.
Compound `Clc1ccc(Nc2ncc(Sc3ccncc3)c3ccccc23)cc1` [Example 1, 1-(4-chlorophenylamino)-4-(4-pyridylthio)isoquinolinc] showed an IC50 of 20 to 50 nM.
Same read-out and setting: next, `Clc1ccc(Nc2ncc(Cc3ccncc3)c3ccccc23)cc1` [Example 4, 1-(4-chlorophenylamino)-4-(4-pyridylmethyl)isoquinoline]: 20 to 50 nM; `NC(=O)c1cc(Cc2cnc(Nc3ccc(Cl)cc3)c3ccccc23)ccn1` [Example 12, 1-(4-chlorophenylamino)-4-(2-aminocarbonyl-4-pyridylmethyl)isoquinolin]: 20 to 50 nM; `CNC(=O)c1cc(Cc2cnc(Nc3ccc(Cl)cc3)c3ccccc23)ccn1` [Example 13, 1-(4-chlorophenylamino)-4-(2-methylaminocarbonyl-4-pyridylmethyl)isoquinoline]: 20 to 50 nM.
Same read-out and setting: next, `Clc1ccc(Nc2nnc(Nc3ccc4ncsc4c3)c3sccc23)cc1` [Example 17, 4-(4-chlorophenylamino)-7-(benzothiazol-6-ylamino)thieno[2,3-d]pyridazine]: 20 to 50 nM; `Cc1ccc(Nc2nnc(Nc3ccc4ncsc4c3)c3ccccc23)cc1F` [Example 104]: no more than 20 nM.
The same measure, in the same setting: next, `CCN(c1ccc(Nc2nnc(Nc3ccc4ncsc4c3)c3ccccc23)cc1)C(C)C` [Example 100]: 50 to 400 nM; `Brc1ccc2c(c1)CCN2c1nnc(Nc2ccc3ncsc3c2)c2ccccc12` [Example 97]: 50 to 400 nM; `c1ccc2c(Nc3ccc4ncsc4c3)nnc(Nc3ccc4ncsc4c3)c2c1` [Example 93]: 20 to 50 nM.
`c1ccc2c(Nc3ccc4ncsc4c3)nnc(Nc3ccc(N4CCCCC4)cc3)c2c1` [Example 99]: the half-inhibitory concentration (IC50) was 50 to 400 nM.
